Data: PubChem BioAssay AID1745844 (Carcinogenic Potency Database (CPDB), 2022)
Where “and” joins values, the source holds several entries; their conditions need not be identical. Equal values may be shown once. Calls of active or inactive are those of the source. No rule for the calls is given here.

Tested on: rodent lifetime carcinogenesis bioassay, tumor incidence TD50
Experiment: chronic cancer bioassays in animals – CPDB, compiled studies (AID 1745844)
Details: for carcinogen call: lesion: hemangioma

`C=CC(O)c1ccc2c(c1)OCO2` (configuration not stated) gave a TD50 (mouse, strain (B6C3F1 x B6C3 background, brachymorphic) inter se = B6C3F2 br, females, in feed, site: liver, lesion: hepatoma, dosed 52 weeks, study length 69 weeks) of 1530 mg/kg/day, a TD50 (mouse, strain (B6C3F1 x B6C3 background, brachymorphic) inter se = B6C3F2 ph, females, in feed, site: liver, lesion: hepatoma, dosed 52 weeks, study length 69 weeks) of 53.3 mg/kg/day and a TD50 (mouse, strain Charles River CD1, females, in feed, site: liver, lesion: hepatocellular carcinoma, dosed 51 weeks, study length 73 weeks) of 68 mg/kg/day. For the same compound, the TD50 (mouse, strain Charles River CD1, females, in feed, site: liver, lesion: hepatoma, dosed 52 weeks, study length 69 weeks) was 49.1 mg/kg/day, the TD50 (mouse, strain Charles River CD1, females, in feed, site: lung, lesion: adenoma, dosed 52 weeks, study length 69 weeks) was 3670 mg/kg/day and the TD50 (mouse, strain Charles River CD1, females, in feed, site: subcutaneous tissue, lesion: angiosarcoma, dosed 51 weeks, study length 73 weeks) was 1550 mg/kg/day. For the same compound, the TD50 (mouse, strain Charles River CD1, males, in feed, site: interscapulum, lesion: angiosarcoma, dosed 56 weeks, study length 69 weeks) was 429 mg/kg/day, the TD50 (mouse, strain Charles River CD1, males, in feed, site: liver, lesion: carcinoma, dosed 56 weeks, study length 69 weeks) was 18900 mg/kg/day and the TD50 (mouse, strain Charles River CD1, males, in feed, site: lung, lesion: adenoma, dosed 56 weeks, study length 69 weeks) was 5470 mg/kg/day. For the same compound, the TD50 (rat, strain Charles River CD (Sprague-Dawley), males, in feed, site: forestomach, lesion: papilloma, dosed 36 weeks, study length 52 weeks) was 65.8 mg/kg/day, the TD50 (rat, strain Charles River CD (Sprague-Dawley), males, in feed, site: forestomach, lesion: papilloma, dosed 43 weeks, study length 69 weeks) was 59.8 mg/kg/day and the TD50 (rat, strain Charles River CD (Sprague-Dawley), males, in feed, site: liver, lesion: carcinoma, dosed 36 weeks, study length 52 weeks) was 12.1 mg/kg/day. It also gave a TD50 (rat, strain Charles River CD (Sprague-Dawley), males, in feed, site: liver, lesion: carcinoma, dosed 43 weeks, study length 69 weeks) of 16.7 mg/kg/day and a TD50 (rat, strain Charles River CD (Sprague-Dawley), males, in feed, site: liver, lesion: hepatocellular carcinoma, dosed 58 weeks, study length 95 weeks) of 47.8 mg/kg/day.

`NNC(=O)c1ccncc1` was tested, and the TD50 (hamster, strain Syrian Golden, females, in drinking water, site: forestomach, lesion: papilloma, dosed 121 weeks, study length 121 weeks) was 575 mg/kg/day (inactive), the carcinogen call (hamster, strain Syrian Golden, males, in drinking water, site: liver, dosed 130 weeks, study length 130 weeks) was “negative (inactive)” and the TD50 (mouse, strain A, males, by gavage, site: liver, lesion: carcinoma, dosed 79 weeks, study length 79 weeks) was 159 mg/kg/day. For the same compound, the TD50 (mouse, strain A, males, by gavage, site: lung, lesion: carcinoma, dosed 79 weeks, study length 79 weeks) was 206 mg/kg/day, the TD50 (mouse, strain A, males, by gavage, site: several sites, sites named in the paper, lesion: carcinoma, dosed 79 weeks, study length 79 weeks) was 219 mg/kg/day and the TD50 (mouse, strain AKR, females, in drinking water, site: lung, lesion: one or several types, types not named, dosed 70 weeks, study length 70 weeks) was 89.6 mg/kg/day (inactive). The carcinogen call (mouse, strain AKR, males, in drinking water, site: liver, dosed 59 weeks, study length 59 weeks) was “negative (inactive)”, the TD50 (mouse, strain AKR, males, in drinking water, site: lung, lesion: one or several types, types not named, dosed 59 weeks, study length 59 weeks) was 202 mg/kg/day (inactive) and the TD50 (mouse, strain C3H (MTV+), females, in drinking water, site: lung, lesion: adenoma, dosed 72 weeks, study length 72 weeks) was 755 mg/kg/day. The TD50 (mouse, strain C3H (MTV+), males, in drinking water, site: lung, lesion: adenoma, dosed 72 weeks, study length 72 weeks) was 219 mg/kg/day, the TD50 (mouse, strain CBA/Cb/Se, females, by gavage, site: liver, lesion: hepatoma, dosed 36 weeks, study length 84 weeks) was 187 mg/kg/day (inactive) and the TD50 (mouse, strain CBA/Cb/Se, females, by gavage, site: lung, lesion: several types, types named in the paper, dosed 36 weeks, study length 84 weeks) was 11.2 mg/kg/day. The TD50 (mouse, strain CBA/Cb/Se, males, by gavage, site: liver, lesion: hepatoma, dosed 36 weeks, study length 74 weeks) was 165 mg/kg/day (inactive), the TD50 (mouse, strain CBA/Cb/Se, males, by gavage, site: lung, lesion: several types, types named in the paper, dosed 36 weeks, study length 74 weeks) was 12.2 mg/kg/day and the TD50 (mouse, strain Not specified, both sexes, by gavage, site: any site (literature study), lesion: several types, types named in the paper, dosed 52 weeks, study length 52 weeks) was 14.1 mg/kg/day. For the same compound, the TD50 (mouse, strain Not specified, both sexes, by gavage, site: lung, lesion: adenoma, dosed 52 weeks, study length 52 weeks) was 19.3 mg/kg/day, the TD50 (mouse, strain Not specified, both sexes, by gavage, site: mammary gland, lesion: adenocarcinoma, dosed 52 weeks, study length 52 weeks) was 80.9 mg/kg/day and the carcinogen call (mouse, strain Swiss albino, females, in drinking water, site: liver, dosed 80 weeks, study length 80 weeks) was “negative (inactive)”. The carcinogen call (mouse, strain Swiss albino, females, in drinking water, site: liver, dosed 101 weeks, study length 106 weeks) was “negative (inactive)”, the TD50 (mouse, strain Swiss albino, females, in drinking water, site: lung, lesion: adenocarcinoma, dosed 80 weeks, study length 80 weeks) was 435 mg/kg/day and the TD50 (mouse, strain Swiss albino, females, in drinking water, site: lung, lesion: adenoma, dosed 80 weeks, study length 80 weeks) was 189 mg/kg/day. For the same compound, the TD50 (mouse, strain Swiss albino, females, in drinking water, site: lung, lesion: adenoma, dosed 101 weeks, study length 106 weeks) was 386 mg/kg/day, the TD50 (mouse, strain Swiss albino, females, in drinking water, site: lung, lesion: several types, types named in the paper, dosed 80 weeks, study length 80 weeks) was 153 mg/kg/day and the carcinogen call (mouse, strain Swiss albino, males, in drinking water, site: liver, dosed 80 weeks, study length 80 weeks) was “negative (inactive)”. It also gave a TD50 (mouse, strain Swiss albino, males, in drinking water, site: lung, lesion: adenoma, dosed 80 weeks, study length 80 weeks) of 124 mg/kg/day, a TD50 (mouse, strain Swiss albino, males, in drinking water, site: lung, lesion: adenoma, dosed 86 weeks, study length 87 weeks) of 104 mg/kg/day and a TD50 (mouse, strain Swiss, both sexes, by gavage, site: lung, lesion: adenocarcinoma, dosed 95 weeks, study length 95 weeks) of 28.8 mg/kg/day. It also gave a TD50 (mouse, strain Swiss, both sexes, by gavage, site: lung, lesion: one or several types, types not named, dosed 97 weeks, study length 97 weeks) of 24.5 mg/kg/day, a TD50 (mouse, strain Swiss, females, by gavage, site: liver, lesion: carcinoma, dosed 81 weeks, study length 83 weeks) of 88.6 mg/kg/day and a TD50 (mouse, strain Swiss, females, by gavage, site: lung, lesion: carcinoma, dosed 81 weeks, study length 83 weeks) of 88.6 mg/kg/day. For the same compound, the TD50 (mouse, strain Swiss, females, by gavage, site: lung, lesion: carcinoma, dosed 83 weeks, study length 83 weeks) was 53.1 mg/kg/day, the TD50 (mouse, strain Swiss, females, by gavage, site: several sites, sites named in the paper, lesion: carcinoma, dosed 81 weeks, study length 83 weeks) was 39.9 mg/kg/day and the TD50 (mouse, strain Swiss, females, by gavage, site: several sites, sites named in the paper, lesion: carcinoma, dosed 83 weeks, study length 83 weeks) was 53.1 mg/kg/day. The TD50 (mouse, strain Swiss, males, by gavage, site: liver, lesion: carcinoma, dosed 79 weeks, study length 79 weeks) was 88.8 mg/kg/day and 71.3 mg/kg/day, the TD50 (mouse, strain Swiss, males, by gavage, site: liver, lesion: carcinoma, dosed 85 weeks, study length 85 weeks) was 211 mg/kg/day and the TD50 (mouse, strain Swiss, males, by gavage, site: lung, lesion: carcinoma, dosed 79 weeks, study length 79 weeks) was 41.1 mg/kg/day and 39.2 mg/kg/day. The TD50 (mouse, strain Swiss, males, by gavage, site: lung, lesion: carcinoma, dosed 85 weeks, study length 85 weeks) was 28.9 mg/kg/day, the TD50 (mouse, strain Swiss, males, by gavage, site: several sites, sites named in the paper, lesion: carcinoma, dosed 79 weeks, study length 79 weeks) was 25.7 mg/kg/day and 21.2 mg/kg/day and the TD50 (mouse, strain Swiss, males, by gavage, site: several sites, sites named in the paper, lesion: carcinoma, dosed 85 weeks, study length 85 weeks) was 24 mg/kg/day. It also gave a TD50 (rat, strain Cb/Sc, females, in drinking water, site: mammary gland, lesion: fibroadenoma, dosed 48 weeks, study length 64 weeks) of 120 mg/kg/day, a TD50 (rat, strain Cb/Sc, males, in drinking water, site: liver, lesion: one or several types, types not named, dosed 48 weeks, study length 84 weeks) of 199 mg/kg/day and a TD50 (rat, strain Cb/Sc, males, in drinking water, site: lung, lesion: several types, types named in the paper, dosed 48 weeks, study length 84 weeks) of 1070 mg/kg/day.

In the case of `CC(C(O)c1ccccc1)N(C)N=O` (configuration not stated), the TD50 (rat, strain Sprague-Dawley, males, by gavage, site: any site (literature study), lesion: several types, types named in the paper, dosed 104 weeks, study length 104 weeks) is reported as 40 mg/kg/day, the TD50 (rat, strain Sprague-Dawley, males, by gavage, site: forestomach, lesion: papilloma, dosed 104 weeks, study length 104 weeks) is reported as 239 mg/kg/day and the TD50 (rat, strain Sprague-Dawley, males, by gavage, site: forestomach, lesion: squamous-cell carcinoma, dosed 104 weeks, study length 104 weeks) is reported as 740 mg/kg/day. For the same compound, the TD50 (rat, strain Sprague-Dawley, males, by gavage, site: liver, lesion: hepatocellular carcinoma, dosed 104 weeks, study length 104 weeks) was 138 mg/kg/day, the TD50 (rat, strain Sprague-Dawley, males, by gavage, site: liver, lesion: several types, types named in the paper, dosed 104 weeks, study length 104 weeks) was 95.2 mg/kg/day and the TD50 (rat, strain Sprague-Dawley, males, by gavage, site: lung, lesion: several types, types named in the paper, dosed 104 weeks, study length 104 weeks) was 217 mg/kg/day.

Work on `C=C1C(C)(C)[C@@]2(Cl)C(Cl)[C@]1(Cl)C(Cl)(Cl)C2(Cl)Cl` (some centres not stated) yielded a TD50 (mouse, strain B6AKF1, males, oral dosing, site: any site (literature study), lesion: several types, types named in the paper, dosed 79 weeks, study length 79 weeks) of 0.75 mg/kg/day, a TD50 (mouse, strain B6AKF1, males, oral dosing, site: liver, lesion: hepatoma, dosed 79 weeks, study length 79 weeks) of 0.644 mg/kg/day and a TD50 (mouse, strain B6C3F1, females, oral dosing, site: any site (literature study), lesion: several types, types named in the paper, dosed 79 weeks, study length 79 weeks) of 3.37 mg/kg/day. It also gave a TD50 (mouse, strain B6C3F1, females, oral dosing, site: lung, lesion: adenoma, dosed 79 weeks, study length 79 weeks) of 10.7 mg/kg/day, a TD50 (mouse, strain B6C3F1, males, oral dosing, site: all sites, lesion: reticulum-cell sarcoma, dosed 79 weeks, study length 79 weeks) of 1.41 mg/kg/day and a TD50 (mouse, strain B6C3F1, males, oral dosing, site: any site (literature study), lesion: several types, types named in the paper, dosed 79 weeks, study length 79 weeks) of 0.75 mg/kg/day. It also gave a TD50 (mouse, strain B6C3F1, males, oral dosing, site: liver, lesion: hepatoma, dosed 79 weeks, study length 79 weeks) of 4 mg/kg/day and a TD50 (mouse, strain B6C3F1, males, oral dosing, site: lung, lesion: adenoma, dosed 79 weeks, study length 79 weeks) of 8.29 mg/kg/day.

Work on `Nc1nc(N)nc(-c2ccc([N+](=O)[O-])o2)n1` yielded a TD50 (rat, strain Sprague-Dawley, females, in feed, site: any site (literature study), lesion: several types, types named in the paper, dosed 46 weeks, study length 66 weeks) of 1.71 mg/kg/day, a TD50 (rat, strain Sprague-Dawley, females, in feed, site: mammary gland, lesion: adenocarcinoma, dosed 46 weeks, study length 66 weeks) of 4.49 mg/kg/day and a TD50 (rat, strain Sprague-Dawley, females, in feed, site: mammary gland, lesion: several types, types named in the paper, dosed 46 weeks, study length 66 weeks) of 1.71 mg/kg/day.

With `CCC=C(CC)[N+](=O)[O-]` the TD50 (mouse, strain Swiss Webster, females, inhaled, site: lung, lesion: adenocarcinoma, dosed 62 weeks, study length 62 weeks) was 0.363 mg/kg/day and 0.768 mg/kg/day, the TD50 (mouse, strain Swiss Webster, females, inhaled, site: lung, lesion: several types, types named in the paper, dosed 62 weeks, study length 62 weeks) was 0.687 mg/kg/day and the TD50 (mouse, strain Swiss, both sexes, inhaled, site: lung, lesion: adenocarcinoma, dosed 62 weeks, study length 62 weeks) was 0.346 mg/kg/day. It also gave a TD50 (rat, strain CFN, both sexes, inhaled, site: lung, lesion: undifferentiated carcinoma, dosed 158 weeks, study length 158 weeks) of 8.66 mg/kg/day.
